Measured values taken from ChEMBL document CHEMBL1201862, “PubChem BioAssay data set” (2004).
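Assay format: 96-well plates, 48-hour exposure. GI50 marks 50% less growth.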 Active and inactive are the calls of the source. Cut-off read from the data, not from the text of the source: active = GI50 up to about 1.1 µM and inactive = higher.

Columns and labels:
Test in all cases: inhibition of tumour cell growth, NCI panel, 48 h
[1] = test system: EKVX
[2] = test system: HOP-92
[3] = test system: Hs-578T
[4] = test system: SF-295
[5] = test system: NCI-H23
[6] = test system: SK-MEL-2
[7] = test system: OVCAR-5
[8] = test system: PC-3
[9] = test system: SK-MEL-5
[10] = test system: M14
[11] = test system: MOLT-4
[12] = test system: MDA-MB-435
[13] = test system: Malme-3M
[14] = test system: A498
[15] = test system: CAKI-1
[16] = test system: SF-539
[17] = test system: SNB-75
[18] = test system: IGROV-1
[19] = test system: MDA-MB-231
[20] = test system: SK-MEL-28
[21] = test system: T47D
[22] = test system: MDA-N
[23] = test system: SF-268
[24] = test system: SNB-19
[25] = test system: U-251
[26] = test system: SK-OV-3
[27] = test system: K562
[28] = test system: RPMI-8226
[29] = test system: CCRF-CEM
[30] = test system: DU-145
[31] = test system: SR
[32] = test system: ACHN
[33] = test system: HCT-116
[34] = test system: UACC-257
[35] = test system: COLO 205
[36] = test system: TK-10
[37] = test system: UACC-62
[38] = test system: MCF7
[39] = test system: HT-29
[40] = test system: KM12
[41] = test system: NCI-H522
[42] = test system: SN12C
[43] = test system: NCI-H460
[44] = test system: UO-31
[45] = test system: RXF 393
[46] = test system: 786-0
[47] = test system: LOX IMVI
[48] = test system: HCC 2998
[49] = test system: BT-549
[50] = test system: OVCAR-3
[51] = test system: HL-60
[52] = test system: NCI/ADR-RES
[53] = test system: OVCAR-4
[54] = test system: SW-620
[55] = test system: A549
[56] = test system: HCT-15
[57] = test system: OVCAR-8
[58] = test system: HOP-62
[59] = test system: NCI-H226

Measured: GI50

CC(=O)Oc1ccc2ccc(=O)oc2c1OC(C)=O
inactive: [1] 67.8 µM | [2] 64.3 µM | [3] 61.9 µM | [4] 41.5 µM | [5] 32 µM | [6] > 100 µM | [7] > 100 µM | [8] 43 µM | [9] 27.2 µM | [10] 78 µM | [11] 33.3 µM | [12] 39.1 µM | [13] > 100 µM | [14] > 100 µM | [15] 43.6 µM | [16] 43.4 µM | [17] 66.5 µM | [18] 57.1 µM | [19] 29.5 µM | [20] > 100 µM | [21] 82.4 µM | [22] 49.8 µM | [23] 27.8 µM | [24] 32.6 µM | [25] 50.2 µM | [26] 73.1 µM | [27] 41.9 µM | [28] 28.4 µM | [29] 10.6 µM | [30] > 100 µM | [31] 28 µM | [32] 45.4 µM | [33] 36.3 µM | [34] > 100 µM | [35] 24.4 µM | [36] 78.2 µM | [37] 43.9 µM | [38] 46.3 µM | [39] > 100 µM | [40] 44.4 µM | [41] 39.5 µM | [42] 19 µM | [43] 14.9 µM | [44] 30.1 µM | [45] 22.7 µM | [46] 42.1 µM | [47] 21.3 µM | [48] 48 µM | [49] 40 µM | [50] 29.9 µM | [51] 17.1 µM | [52] 50.6 µM | [53] 35 µM | [54] 37.1 µM | [55] 30.1 µM | [57] 35.4 µM | [58] 29.5 µM
11.6 µM: [56]

CC(=O)Oc1ccn2nc(C)c(Br)c2c1
65.2 µM: [56]
inactive: [1] > 83.2 µM | [2] > 87.1 µM | [3] > 100 µM | [4] > 100 µM | [5] > 58.2 µM | [6] > 54 µM | [7] > 100 µM | [8] > 53.6 µM | [9] 42.6 µM | [10] > 100 µM | [11] 43 µM | [12] 31.8 µM | [13] 64.1 µM | [14] > 100 µM | [16] > 100 µM | [17] > 44.1 µM | [18] > 100 µM | [19] > 81.3 µM | [20] > 100 µM | [21] 99.1 µM | [22] 49.3 µM | [23] > 53.8 µM | [24] > 100 µM | [25] 97.7 µM | [59] > 100 µM | [27] 39.2 µM | [29] 29.9 µM | [30] > 100 µM | [31] > 76.7 µM | [32] > 100 µM | [33] > 100 µM | [34] 36.2 µM | [35] 25.6 µM | [36] > 100 µM | [37] 25.5 µM | [38] 47.8 µM | [39] 53.3 µM | [40] > 100 µM | [41] 28.8 µM | [42] > 100 µM | [43] 98.2 µM | [45] 65.3 µM | [46] > 100 µM | [47] 34 µM | [48] > 100 µM | [49] > 100 µM | [50] 39.3 µM | [51] 25.9 µM | [52] > 100 µM | [53] > 100 µM | [54] > 100 µM | [55] > 70.5 µM | [57] > 64.4 µM | [58] > 67.1 µM

COc1ccc2c3c(c(=O)n(C)c2c1OC)C=CC(C)(C)O3
13.4 µM: [56]
inactive: [1] 23.9 µM | [2] 18 µM | [3] 23.5 µM | [4] 36.7 µM | [5] 22.8 µM | [6] 42.6 µM | [7] 82 µM | [8] 33.7 µM | [9] 13.3 µM | [10] 48.3 µM | [11] 24.4 µM | [12] 38.3 µM | [13] 50.4 µM | [14] 17.9 µM | [15] 13.5 µM | [16] 39.2 µM | [17] 2.78 µM | [18] 36.1 µM | [19] 22 µM | [20] 41.9 µM | [21] 25.8 µM | [22] 21.7 µM | [23] 26.8 µM | [24] 20.7 µM | [25] 30.6 µM | [59] 22.2 µM | [26] 32.1 µM | [28] 10 µM | [29] 23.2 µM | [30] 43.7 µM | [31] 3.46 µM | [32] 13.7 µM | [33] 29.9 µM | [34] 35.3 µM | [35] 19.7 µM | [36] 28.8 µM | [37] 37.8 µM | [38] 36.8 µM | [39] 24 µM | [40] 21.6 µM | [41] 34.5 µM | [42] 12.7 µM | [44] 20.9 µM | [45] 26.5 µM | [46] 43.1 µM | [47] 33.7 µM | [48] 29.5 µM | [49] 22.1 µM | [50] 48 µM | [51] 11.2 µM | [52] 18 µM | [53] 19.1 µM | [54] 28.4 µM | [55] 44.7 µM | [57] 23.9 µM | [58] 80.2 µM
